Values after ≈ are worked out from the molar mass of the structure shown. “Also recorded” adds a separate entry of the source.
How the values were obtained:
Type in all cases: cell-based
C. albicans SC5314 = assay: MIC80 broth double-dilution assay; conditions: YPAD medium, 30° C., 24 h; for MIC80: Candida albicans, SC5314, read-out: MIC80 against C. albicans SC5314
In short: (§1)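 CLSI M27-A3-based broth microdilution in YPAD over 0.003–64 μg/mL, inoculum from 1×10^−3 OD600 suspension diluted 1:100. OD600 read after 24 h at 30 °C; MIC80 taken as lowest concentration giving >80% growth reduction versus no-drug wells. Triplicates, two independent experiments.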

C. albicans P-87 = assay: MIC80 broth double-dilution assay; conditions: YPAD medium, 30° C., 24 h; for MIC80: Candida albicans, P87, read-out: MIC80 against C. albicans P-87
In short: as §1

C. albicans ATCC 90028 = assay: MIC80 broth double-dilution assay; conditions: YPAD medium, 30° C., 24 h; for MIC80: Candida albicans, ATCC90028, read-out: MIC80 against C. albicans 90028
In short: as §1

C. albicans ATCC 24433 = assay: MIC80 broth double-dilution assay; conditions: YPAD medium, 30° C., 24 h; for MIC80: Candida albicans, ATCC24433, read-out: MIC80 against C. albicans 24433
In short: as §1

C. tropicalis 660 [1] = assay: MIC80 broth double-dilution assay; conditions: YPAD medium, 30° C., 24 h; for MIC80: Candida tropicalis, 660, read-out: MIC80 against C. tropicalis 660
In short: as §1

C. dubliniensis T-99 = assay: MIC80 broth double-dilution assay; conditions: YPAD medium, 30° C., 24 h; for MIC80: Candida dubliniensis, T99, read-out: MIC80 against C. dubliniensis T-99
In short: as §1

[2] = system: C. parapsilosis ATCC 22019; assay: MIC80 broth double-dilution assay; conditions: YPAD medium, 30° C., 24 h; for MIC80: Lodderomyces parapsilosis, ATCC22019, read-out: MIC80 against C. parapsilosis 22019
In short: as §1

[3] = system: C. albicans 742 (erg11ΔΔ/erg3ΔΔ mutant C. albicans strain); assay: MIC80 broth double-dilution assay, strain lacking CYP51; conditions: 24 h; for MIC80: Candida albicans, read-out: MIC80 against C. albicans 742; for MIC80 against C. albicans 742: YPAD medium, 30° C., erg11ΔΔ/erg3ΔΔ mutant lacking CYP51
In short: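 Double-knockout C. albicans and parent SN152 grown in YPAD at 30 °C with serial double dilutions from 64 to 0.003 μg/mL; OD600 read after 24 h (growth followed over 48 h). MIC80 taken as >80% OD600 reduction versus no-drug wells; triplicate, two independent experiments.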

C. albicans SN152 = assay: Disk diffusion assay for antifungal tolerance; conditions: casitone agar, disk with 25 μg, 30° C.
Method: (§2) To investigate how tolerance is affected by the azole-COX inhibitor hybrids, a comparison of hybrids 1 and 5 to FLC and VOR in a disk diffusion assay was performed. Tolerance was evaluated by comparing the zone of inhibition after 24 h to that after 48 h. The assay was carried out on three representative strains: C. albicans, C. parapsilosis, and C. tropicalis (FIG. 7).
(§3) As shown, compared to FLC and VOR, azole-COX inhibitor hybrids 1 and 5 display reduced antifungal tolerance. Disk diffusion assays were carried out on casitone agar plates containing disks loaded with 25 μg of the tested hybrids. Plates were imaged after 24 h to evaluate antifungal activity (left half of the plate image) and after 48 h to evaluate tolerance (right half of the plate image).
(§4) Disk diffusion assay: Antifungal activities of select hybrids against C. albicans SN152, C. parapsilosis ATCC 22019, and C. tropicalis 660 were confirmed by the disk diffusion assay. Strains were streaked from frozen culture onto YPAD agar and incubated for 24 h at 30° C. Two or three colonies were placed into 1 mL of PBS solution, and OD600 was determined with a TECAN Infinite. OD600 was adjusted to 0.02 for C. albicans SN152 and to 0.025 for C. parapsilosis ATCC 22019 and C. tropicalis 660 by dilution with PBS. Aliquots of 200 μL of the diluted cultures of each strain were plated onto 15-mL casitone agar plates and spread using sterile beads (3 mm, Fisher Scientific). After the plates dried, a single disk (6-mm diameter, Becton Dickinson) with 25 μg of the hybrid being tested was placed in the center of each plate. Plates were then incubated at 30° C. and photographed under the same imaging conditions after 24 h and 48 h. FLC and VOR were used as control drugs.

C. tropicalis 660 [4] = assay: Disk diffusion assay for antifungal tolerance; conditions: casitone agar, disk with 25 μg, 30° C.
Method: as §2, §3, §4

[5] = system: C. parapsilosis ATCC 22019; assay: Disk diffusion assay for antifungal tolerance; conditions: casitone agar, disk with 25 μg, 30° C.
Method: as §2, §3, §4

Compound: OC(Cn1cncn1)(Cn1cncn1)c1ccc(F)cc1F [FLC, fluconazole]
- MIC80 (C. albicans SC5314): 0.5 µg/mL (≈ 1.63 µM)
- MIC80 (C. albicans P-87): 1 µg/mL (≈ 3.27 µM)
- MIC80 (C. albicans ATCC 90028): 0.5 µg/mL (≈ 1.63 µM)
- MIC80 (C. albicans ATCC 24433): 1 µg/mL (≈ 3.27 µM)
- MIC80 (C. tropicalis 660 [1]): 1 µg/mL (≈ 3.27 µM)
- MIC80 (C. dubliniensis T-99): 0.25 µg/mL (≈ 0.816 µM)
- MIC80 [2]: 1 µg/mL (≈ 3.27 µM)
- MIC80 [3]: > 64 µg/mL
- MIC80 against C. albicans 742 [3]: inactive
- Tolerance: zone of inhibition after 48 h compared with 24 h (C. albicans SN152): covered by drug tolerant colonies
- Tolerance: zone of inhibition after 48 h compared with 24 h (C. tropicalis 660 [4]): the drug tolerant subpopulation was smaller
- Tolerance: zone of inhibition after 48 h compared with 24 h [5]: covered by drug tolerant colonies

Compound: CC(C)Cc1ccc([C@H](C)C(=O)NC[C@](O)(Cn2cncn2)c2ccc(F)cc2F)cc1 [Hybrid 1]
- MIC80 against C. albicans SC5314 (C. albicans SC5314): 0.003 µg/mL (≈ 0.00678 µM)
- MIC80 against C. albicans P-87 (C. albicans P-87): 0.003 µg/mL (≈ 0.00678 µM)
- MIC80 against C. albicans 90028 (C. albicans ATCC 90028): 0.003 µg/mL (≈ 0.00678 µM)
- MIC80 against C. albicans 24433 (C. albicans ATCC 24433): 0.007 µg/mL (≈ 0.0158 µM)
- MIC80 against C. tropicalis 660 (C. tropicalis 660 [1]): 0.03 µg/mL (≈ 0.0678 µM)
- MIC80 against C. dubliniensis T-99 (C. dubliniensis T-99): 0.06 µg/mL (≈ 0.136 µM)
- MIC80 against C. parapsilosis 22019 [2]: 0.007 µg/mL (≈ 0.0158 µM)
- MIC80 against C. albicans 742 [3]: 64 µg/mL (≈ 145 µM)
- Tolerance: zone of inhibition after 48 h compared with 24 h (C. albicans SN152): reduced tolerance
- Tolerance: zone of inhibition after 48 h compared with 24 h (C. tropicalis 660 [4]): reduced tolerance
- Tolerance: zone of inhibition after 48 h compared with 24 h [5]: reduced tolerance

Compound: C[C@H](C(=O)NC[C@](O)(Cn1cncn1)c1ccc(F)cc1F)c1ccc(-c2ccccc2)c(F)c1 [Hybrid 5]
- MIC80 against C. albicans SC5314 (C. albicans SC5314): 0.007 µg/mL (≈ 0.0146 µM)
- MIC80 against C. albicans P-87 (C. albicans P-87): 0.015 µg/mL (≈ 0.0312 µM)
- MIC80 against C. albicans 90028 (C. albicans ATCC 90028): 0.015 µg/mL (≈ 0.0312 µM)
- MIC80 against C. albicans 24433 (C. albicans ATCC 24433): 0.03 µg/mL (≈ 0.0624 µM)
- MIC80 against C. tropicalis 660 (C. tropicalis 660 [1]): 0.06 µg/mL (≈ 0.125 µM)
- MIC80 against C. dubliniensis T-99 (C. dubliniensis T-99): 0.5 µg/mL (≈ 1.04 µM)
- MIC80 against C. albicans 742 [3]: 64 µg/mL (≈ 133 µM)
- Tolerance: zone of inhibition after 48 h compared with 24 h (C. albicans SN152): reduced tolerance
- Tolerance: zone of inhibition after 48 h compared with 24 h (C. tropicalis 660 [4]): reduced tolerance
- Tolerance: zone of inhibition after 48 h compared with 24 h [5]: reduced tolerance; also recorded: markedly lower than that to VOR

Compound: C[C@@H](c1ncncc1F)[C@](O)(Cn1cncn1)c1ccc(F)cc1F [VOR, voriconazole, reference compound]
- MIC80 (C. albicans SC5314): 0.007 µg/mL (≈ 0.02 µM)
- MIC80 (C. albicans P-87): 0.007 µg/mL (≈ 0.02 µM)
- MIC80 (C. albicans ATCC 90028): 0.007 µg/mL (≈ 0.02 µM)
- MIC80 (C. albicans ATCC 24433): 0.015 µg/mL (≈ 0.0429 µM)
- MIC80 (C. tropicalis 660 [1]): 0.12 µg/mL (≈ 0.344 µM)
- MIC80 (C. dubliniensis T-99): 0.03 µg/mL (≈ 0.0859 µM)
- MIC80 [2]: 0.015 µg/mL (≈ 0.0429 µM)
- MIC80 [3]: > 64 µg/mL
- MIC80 against C. albicans 742 [3]: inactive
- Tolerance: zone of inhibition after 48 h compared with 24 h (C. albicans SN152): covered by drug tolerant colonies
- Tolerance: zone of inhibition after 48 h compared with 24 h (C. tropicalis 660 [4]): the drug tolerant subpopulation was smaller
- Tolerance: zone of inhibition after 48 h compared with 24 h [5]: covered by drug tolerant colonies

— patent US20250018048A1, “FLUCONAZOLE-COX INHIBITOR HYBRIDS: A DUAL-ACTING CLASS OF ANTIFUNGAL AZOLES” (Ramot at Tel-Aviv University Ltd., priority 2022, published 2025)
